Experimental data reported in publication PMC6264499, “In silico identification and experimental validation of hits active against KPC-2 β-lactamase” (PLoS ONE, 2018).

Legend:
recombinant KPC-2 [1] = target: T1, recombinant KPC-2 (Klebsiella pneumoniae, UniProt Q9F663); assay: KPC-2 inhibition assay, CENTA as reporter substrate; assay type: biochemical; details: for fold less active than 9a: IC50 vs KPC-2 relative to compound 9a
T1 construct: made in house; host or cells: E. coli BL21 (DE3)
Experimental: (§1) The blaKPC-2 gene was kindly provided by Prof. Sergei Vakulenko (University of Notre Dame du Lac, Indiana, USA) and cloned as already reported and transformed into competent E.coli BL21 (DE3) cells for protein expression. 50 mL of Tryptic Soy Broth (TSB) (50 mg/L kanamycin) were inoculated with fresh colonies and grown at 37°C. 4 mL of the overnight culture was used to inoculate 1.3 L of TSB (50 mg/L kanamycin) grown at 37°C with shaking to an optical density of 0.5 measured at 600 nm. Then expression of recombinant bla gene was induced by adding 1.0 mM IPTG (isopropyl-D-thiogalactopyranoside) and the cells were again allowed to grow at 20°C overnight. Bacteria were harvested by centrifugation at 4000 rpm for 20 minutes. The pelleted cells were resuspended in Tris-HCl 50 mM pH 7.4–7.5. Periplasmatic proteins were extracted as reported in the pET System Manual (TB055 10th Edition Rev. B 0403) and subsequently dialyzed in sodium acetate buffer (50 mM, pH 5.0). The protein was conveniently purified in a single step using a Macro-Prep High S resin and eluted using sodium acetate 50 mM pH 5.0 and a sodium chloride (NaCl) linear gradient from 100 to 500 mM. The purified protein was dialyzed overnight in sodium phosphate buffer 50 mM, pH 7.0 [31, 32].
(§2) The hydrolytic activity of KPC-2 was measured using the β-lactam substrates CENTA (100 uM, KM 70 uM) or nitrocefin (114 uM, KM 36 μM) in reaction buffer consisting of 50 mM of PB at pH 7.0 at 25°C with 0.01% v/v Triton X-100 to avoid compound aggregation and promiscuous inhibition.[33] Reactions were monitored using a Beckmann DU640 spectrophotometer at […] for CENTA and 480 nm wavelength for nitrocefin [34]. The test compounds were synthesized as described below or purchased from Enamine, TimTec, Vitas-M, ChemBridge, Otava, Life Chemicals or Apollo Scientific and assayed without further purification. Compounds were dissolved in dimethyl sulfoxide (DMSO) to a concentration of 25 mM and stored at -20°C. The highest concentration at which the compounds were tested was up to 1 mM (depending on their solubility). All experiments were performed in duplicate and the error never exceeded 5%. The reaction was typically initiated by adding KPC-2 to the reaction buffer last. To control for incubation effects, protein was added to the reaction buffer first, and the reaction was initiated by the addition of reporter substrate after 10 minutes of enzyme-compound incubation.
Fig 4 Inhibitory activity of compounds selected from virtual screening. ^[a]Assays were performed in duplicate (errors were less than 5%) with CENTA as reporter substrate (100 μM, km 70 μM). Kinetic were monitored at 25° by following the absorbance variation at λ = 405 nm. ^[b] If no IC50 has been measured, percent inhibition at the highest tested concentration is given in parentheses. For example, > 0.50 (26%) implies that the highest concentration tested was 0.50 mM; at this concentration, the enzyme was inhibited by 26%. Therefore, IC50> 0.50 mM. When % Inhibition was below 10% No Inibition (NI) is reported. ^[c]Assays were run after 10’ incubation of the inhibitor with KPC-2. Reaction was started by the addition of CENTA. […] 0 (11) | 32a: IC50 mM ^[a,b]: 1.24
Competitive inhibition mechanism and the Ki for compound 9a was determined by Lineweaver–Burk (LB) and Dixon plots.

recombinant KPC-2 [2] = target: T1, recombinant KPC-2; assay: KPC-2 inhibition assay, nitrocefin as reporter substrate; assay type: biochemical; details: for IC50: nitrocefin 114.28 μM (Km 36 μM), 25°, 485 nm
Experimental: as §1, §2
Kinetic were monitored at 25° by following the absorbance variation at λ = 485 nm. ^[b] If no IC50 has been measured, percent inhibition at the highest tested concentration is given in parentheses. […] When % Inhibition was below 10% No Inhibition (NI) is reported. TEXT PRINTED IN THE PICTURE: 11a: IC50 mM [a,b]: 0.036 | 1b: IC50 mM [a,b]: > 0.2 (25) | 2b: IC50 mM [a,b]: >0.6 (23) | 3b: IC50 mM [a,b]: Not tested not soluble | 4b: IC50 mM [a,b]: > 0.2 (16) | 5b: IC50 mM [a,b]: > 0.2 (13) | 6b: IC50 mM [a,b]: NI at 0.2 | 7b: IC50 mM [a,b]: >1.0 (30) | 8b: IC50 mM [a,b]: > 1.0 (37) | 9b: IC50 mM [a,b]: NI at 0.5 | 10b: IC50 mM [a,b]: NI at 0.5 | 11b: IC50 mM [a,b]: > 1.0 (37) | 12b: IC50 mM [a,b]: NI at 0.5 | 13b: IC50 mM [a,b]: NI at 0.5 | 14b: IC50 mM [a,b]: >500 (20) DOUBTS OF THE COPYIST ABOUT THIS PICTURE: column head: raised note printed very small, read as [a,b]

Kpn 53A8 = assay: MIC of meropenem, alone or 1:1 with compounds, KPC-2 clinical strain; assay type: cell-based, K. pneumoniae; details: strain Kpn 53A8
Experimental: The antimicrobial activity of the best hits 9a and 11a and their derivatives was studied in bacterial cell cultures to investigate their ability to cross the outer membrane reaching the periplasmic space, where KPC-2 is secreted and confined in Gram negative bacteria. Compounds were tested for synergy with the β-lactam antibiotic meropenem against four K. pneumoniae clinical strains, isolated from different patients at the Hospital Universitario Son Espases, Palma de Mallorca, Spain. […] The three additional strains harbored the blaKPC-2 gene and were resistant to meropenem (Table 2). […] However, against strain Kpn 53A8 the MIC value was lowered by a factor of two when meropenem was combined with compounds 32a, 1b, 2b, 5b and 6b while in combination with compound 11a the MIC value was reduced by 4 fold.

[3] = CENTA 100 μM (km 70 μM), 25°, 405 nm, no pre-incubation, read-out: IC50
[4] = read-out: percent inhibition at the highest tested concentration
[5] = CENTA 100 μM, after 10' incubation of the inhibitor with KPC-2, read-out: IC50

T1 sequence (Q9F663 25-293, looked up): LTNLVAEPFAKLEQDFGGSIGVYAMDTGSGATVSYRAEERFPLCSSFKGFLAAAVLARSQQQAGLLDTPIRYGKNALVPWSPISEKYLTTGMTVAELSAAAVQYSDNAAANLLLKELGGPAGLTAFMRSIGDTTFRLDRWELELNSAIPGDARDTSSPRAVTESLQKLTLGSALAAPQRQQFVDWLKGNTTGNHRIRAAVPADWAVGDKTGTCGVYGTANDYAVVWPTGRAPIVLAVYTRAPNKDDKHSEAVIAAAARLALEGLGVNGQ

COc1ccc2[nH]nc(C(=O)O)c2c1 [1a]
IC50 (recombinant KPC-2 [1]; [3]): > 330 µM | inhibition at 330 µM (recombinant KPC-2 [1]; [4]): 30%

COc1ccc(-c2cn[nH]c2C(=O)O)c(OC)c1 [2a]
IC50 (recombinant KPC-2 [1]; [3]): > 500 µM | inhibition at 500 µM (recombinant KPC-2 [1]; [4]): 38%

Cc1c(-c2cc(C(=O)O)no2)cnn1C [3a]
IC50 (recombinant KPC-2 [1]; [3]): > 250 µM | inhibition at 250 µM (recombinant KPC-2 [1]; [4]): 13%

Cn1cc(-c2cc(C(=O)O)no2)cn1 [4a]
IC50 (recombinant KPC-2 [1]; [3]): > 250 µM | inhibition at 250 µM (recombinant KPC-2 [1]; [4]): 12%

CC(=O)Nc1ccc(S(=O)(=O)Nc2cccc(-c3nnn[nH]3)c2)cc1 [4b, N-(4-(N-(3-(1H-tetrazol-5-yl)phenyl)sulfamoyl)phenyl)acetamide]
IC50 (recombinant KPC-2 [2]): > 200 µM | inhibition at 200 µM (recombinant KPC-2 [2]; [4]): 16%

COc1ccc(NS(C)(=O)=O)cc1 [5a]
IC50 (recombinant KPC-2 [1]; [3]): > 500 µM | inhibition at 500 µM (recombinant KPC-2 [1]; [4]): 13%

CS(=O)(=O)Nc1ccc(C(N)=O)cc1 [6a]
IC50 (recombinant KPC-2 [1]; [3]): > 1000 µM | inhibition at 1000 µM (recombinant KPC-2 [1]; [4]): 18%

CCOc1ccc(NS(C)(=O)=O)cc1 [7a]
IC50 (recombinant KPC-2 [1]; [3]): > 1000 µM | inhibition at 1000 µM (recombinant KPC-2 [1]; [4]): 12%

O=S(=O)(/C=C/c1cccc(Br)c1)Nc1cccc(-c2nnn[nH]2)c1 [7b]
IC50 (recombinant KPC-2 [2]): > 1000 µM | inhibition at 1000 µM (recombinant KPC-2 [2]; [4]): 30%

CC(=O)Nc1cccc(-c2nnn[nH]2)c1 [8a]
IC50 (recombinant KPC-2 [1]; [3]): > 500 µM | inhibition at 500 µM (recombinant KPC-2 [1]; [4]): 37%

Cc1cc(C(=O)O)cc(S(=O)(=O)Nc2cccc(-c3nnn[nH]3)c2)c1C [8b]
IC50 (recombinant KPC-2 [2]): > 1000 µM | inhibition at 1000 µM (recombinant KPC-2 [2]; [4]): 37%

Cc1c(Br)cc(S(=O)(=O)Nc2cccc(-c3nnn[nH]3)c2)cc1[N+](=O)[O-] [9b]
inhibition at 500 µM (recombinant KPC-2 [2]; [4]): < 10%

O=C(Nc1cccc(-c2nn[nH]n2)c1)c1cccs1 [10a]
IC50 (recombinant KPC-2 [1]; [5]): 70 µM

O=S(=O)(Nc1cccc(-c2nnn[nH]2)c1)c1ccc(S(=O)(=O)N2CCCC2)cc1 [10b]
inhibition at 500 µM (recombinant KPC-2 [2]; [4]): < 10%

O=C(Nc1cccc(-c2nnn[nH]2)c1)c1cccc(F)c1 [11a, N-(3-(1H-tetrazol-5-yl)phenyl)-3-fluorobenzamide]
IC50 (recombinant KPC-2 [1]; [5]): 36 µM | Ki (recombinant KPC-2 [1]; Cheng-Prusoff equation from IC50, assuming competitive inhibition, read-out: Ki (calculated)): 14.8 µM | ligand efficiency (LE) (recombinant KPC-2 [1]; vs KPC-2): 0.28 kcal/mol/non-hydrogen atom | mode of inhibition (recombinant KPC-2 [1]; vs KPC-2): competitive inhibitors | fold reduction of meropenem MIC in combination with compound (Kpn 53A8): 4 fold

Cc1nc2cc(S(=O)(=O)Nc3cccc(-c4nnn[nH]4)c3)ccc2n1-c1ccccc1 [11b]
IC50 (recombinant KPC-2 [2]): > 1000 µM | inhibition at 1000 µM (recombinant KPC-2 [2]; [4]): 37%

Brc1cc2c(cc1-c1nnn[nH]1)OCO2 [12a]
IC50 (recombinant KPC-2 [1]; [5]): 700 µM

O=c1c2ccc(S(=O)(=O)Nc3cccc(-c4nnn[nH]4)c3)cc2nc2n1CCCCC2 [12b]
inhibition at 500 µM (recombinant KPC-2 [2]; [4]): < 10%

NC(=O)c1ccc(-c2nnn[nH]2)cc1 [13a]
inhibition at 250 µM (recombinant KPC-2 [1]; [4]): < 10%

NS(=O)(=O)c1ccc(Cl)c(S(=O)(=O)Nc2cccc(-c3nnn[nH]3)c2)c1 [13b]
inhibition at 500 µM (recombinant KPC-2 [2]; [4]): < 10%

Cn1c(=O)c2n[nH]c(=O)nc2n(C)c1=O [14a]
IC50 (recombinant KPC-2 [1]): > 1000 µM | inhibition at 1000 µM (recombinant KPC-2 [1]; [4]): 26%

O=S(=O)(Nc1cccc(-c2nnn[nH]2)c1)c1ccc(C(F)(F)F)cc1 [14b]
IC50 (recombinant KPC-2 [2]): > 500 µM

CC(C)S(=O)(=O)Nc1ccc2c(c1)C(=O)N(C)CCO2 [15a]
IC50 (recombinant KPC-2 [1]; [3]): > 660 µM | inhibition at 660 µM (recombinant KPC-2 [1]; [4]): 38%

Cc1nn(CC(=O)O)c2[nH]c(=O)cc(C(F)F)c12 [16a]
IC50 (recombinant KPC-2 [1]; [3]): > 1000 µM | inhibition at 1000 µM (recombinant KPC-2 [1]; [4]): 17%

O=c1ccc(O)nn1-c1nnn[nH]1 [17a]
IC50 (recombinant KPC-2 [1]; [3]): > 1000 µM | inhibition at 1000 µM (recombinant KPC-2 [1]; [4]): 23%

O=C(NC1CC1)c1ccc(-c2nnn[nH]2)cc1 [18a]
IC50 (recombinant KPC-2 [1]; [3]): > 1000 µM | inhibition at 1000 µM (recombinant KPC-2 [1]; [4]): 18%

COc1ccc2nc(C(=O)O)[nH]c2c1 [19a]
IC50 (recombinant KPC-2 [1]; [3]): 880 µM | fold less active than 9a (recombinant KPC-2 [1]): 6 fold

CCOc1cc(C(=O)O)nc2ccc(OC)cc12 [20a]
IC50 (recombinant KPC-2 [1]; [5]): > 500 µM | inhibition at 500 µM (recombinant KPC-2 [1]; [4]): 28%

COCc1nc2cc(NS(C)(=O)=O)ccc2o1 [21a]
IC50 (recombinant KPC-2 [1]; [3]): > 1000 µM | inhibition at 1000 µM (recombinant KPC-2 [1]; [4]): 12%

CCS(=O)(=O)Nc1cc(-c2ccncc2)n[nH]1 [22a]
inhibition at 1000 µM (recombinant KPC-2 [1]; [4]): < 10%

CN(Cc1cnccn1)Cc1cccc(C(=O)O)n1 [23a]
IC50 (recombinant KPC-2 [1]; [5]): > 1000 µM | inhibition at 1000 µM (recombinant KPC-2 [1]; [4]): 26%

Cc1n[nH]c(C)c1/C=C/c1cc(C(=O)O)ncn1 [24a]
IC50 (recombinant KPC-2 [1]; [3]): > 100 µM | inhibition at 100 µM (recombinant KPC-2 [1]; [4]): 41%

O=C(NCc1nnnn1-c1ccccc1)c1cccnc1O [25a]
IC50 (recombinant KPC-2 [1]; [3]): > 400 µM | inhibition at 400 µM (recombinant KPC-2 [1]; [4]): 26%

Cc1nn(CC(=O)O)c2nccc(-c3cnn(C)c3)c12 [26a]
IC50 (recombinant KPC-2 [1]; [3]): > 830 µM | inhibition at 830 µM (recombinant KPC-2 [1]; [4]): 18%

Cn1nccc1-c1cc(C(=O)O)n[nH]1 [27a]
inhibition at 500 µM (recombinant KPC-2 [1]; [4]): < 10%

COc1cc(OC)c2cc(C(=O)O)nnc2c1 [28a]
IC50 (recombinant KPC-2 [1]; [3]): > 500 µM | inhibition at 500 µM (recombinant KPC-2 [1]; [4]): 14%

Cc1nn(CC(=O)O)c(C)c1NS(=O)(=O)CC(F)(F)F [29a]
IC50 (recombinant KPC-2 [1]; [3]): > 1000 µM | inhibition at 1000 µM (recombinant KPC-2 [1]; [4]): 15%

O=C(O)Cc1c[nH]c2ncnn2c1=O [30a]
inhibition at 1000 µM (recombinant KPC-2 [1]; [4]): < 10%

CS(=O)(=O)Nc1ccc2oc(=O)sc2c1 [31a]
IC50 (recombinant KPC-2 [1]; [3]): > 1000 µM | inhibition at 1000 µM (recombinant KPC-2 [1]; [4]): 11%

COc1ccc2nc(N)sc2c1 [32a]
fold less active than 9a (recombinant KPC-2 [1]): 8 fold | fold reduction of meropenem MIC in combination with compound (Kpn 53A8): two
